Test results from patent US9265774B2, “Methods, compounds and pharmaceutical compositions for treating anxiety and mood disorders” (New York University, priority 2011, dated 2016).

Tests used:
Fos expression in the LC = Fos expression in the LC in the tail suspension test; assay type: in vivo, mice; conditions: dp6FNE 3 mg/kg i.p. before a 6 min tail suspension test, with prazosin 0.2 mg/kg
Description: (§1) In the RFS study, mice were subjected to 4 daily 15 min swims as described above and were injected i.p. with either vehicle or dp6FNE (3 mg/kg) 15 min prior to the 5th swim. In the TST study, animals were injected similarly before a 6 min test. […] The animals were anesthetized and perfused for immuno-histochemistry 70 min after the start of the swim or tail suspension. Brains were processed as described previously for double-label immunofluorescent Fos/tyrosine hydroxylase staining of all sections through the LC and for single-label Fos staining through the full PVH (Stone et al., Brain Res (2009) 1291: 21-31). […] In the tail suspended mice the analogous reductions were 53.5±7.2% (LC) and 36.7±3.1 (PVH). […] These findings thus indicate that a dose of […] dp6FNE that has preferential inhibitory effects on the LC during depression exists.

[1] = tested on: model of chronic depression in mice (repeated forced swim)
From the text: We administered the pro-drugs shortly before one or more tests of antidepressant activity including reversal of immobility during tail suspension and forced swimming and attenuation of anhedonia produced by endotoxin administration. […] (Stone et al., Eur. J. Pharmacol. (2001) 420: 97-102) Because dp6FNE like all other antidepressants has an initial anorexic effect and acutely reduces the consumption of sweet solutions, in the test for anhedonia it was necessary to employ a non-nutritive hedonic behavior, FUST (sniffing of estrous female urine). […] (Stone et al., Neuropsychopharmacology (2011) 14: 319-331); Sun et al., J. Neurosci. Methods (2003) 126:35-40; Sun et al., Behavioral Pharmacology (2008) 19: 334-338).
Mice were swum for 15 min/d on 4 d and tested for the response to acute i.p dp6FNE (1 or 3 mg/kg) alone or in combination with 8-OHDPAT (0.05 mg/kg) and corticosterone (3 mg/kg) on the 5th and final swim (15 min after drug administration). […] Comparison groups receiving currently available antidepressants were treated acutely i.p. or chronically (14 d osmotic pumps) with either desmethylimipramine (DMI) (10 mg/kg), fluoxetine (5 mg/kg), escitalopram (5 mg/kg), bupropion (10 mg/kg) or ketamine (10 mg/kg).
Although corticosteroids are well known to produce depression (Gourley et al., Biol Psychiatry (2008) 64: 884-890), this occurs at high doses only. […] Mice were swum for 3 d and given either vehicle (0.8% ethanol) or corticosterone (12.5 μg/ml) in their drinking water.
As described in Example 4a, the cocktail was tested in a mouse model of chronic depression (RFS).

[2] = tested on: Fos expression in the PVH; assay: Fos expression in the PVH during the RFS model; assay type: in vivo, mice; conditions: dp6FNE 3 mg/kg i.p. 15 min prior to the 5th swim, with prazosin 0.2 mg/kg; swum animals, versus vehicle
Description: as §1

[3] = tested on: home cage exploration in handling-stressed mice; assay: Home cage activity after handling and injection stress; assay type: in vivo; conditions: i.p.; dp6FNE (1 mg/kg) in the presence of phentolamine; cirazoline (0.1 mg/kg)
Description: FIG. 15 depicts the effect of acute i.p. dp6FNE (1 mg/kg) or cirazoline (0.1 mg/kg), (N=1), on home cage activity in terms of rearing and ambulation, Veh (N=12).
6FNE has a more rapid and/or greater antidepressant effect than either of these agonists because 6FNE is the only known selective α-agonist that has full efficacy at all brain α-adrenoceptors and 6FNE works within minutes (Stone, et al. 2011) whereas cirazoline was given to mice over several months prior to testing in one model (forced swim test) in the above experiment by Doze et al, 2009. […] (Stone, E A, Lin Y, Quartermain, D, Unpublished results)
It is known that peripheral administration of α1-agonists without phentolamine impairs exploratory behavior in the open field (Yang, et al., J Pharmacol exp Ther 1990; 255: 1064-1070).

CC(C)(C)C(=O)Oc1cc(F)c(C(O)CN)cc1OC(=O)C(C)(C)C (centres unmarked) [dp6FNE, dipivalyl-6-fluoronorepinephrine]
reduction in gene expression (Fos) in the LC (Fos expression in the LC): 53.5±7.2% | persistence of anti-immobility effect ([1]; dp6FNE 0.5 mg/kg, i.p., repeated daily): at least 11 daily treatments | increase of distance swum ([1]; dp6FNE 1 mg/kg acute i.p., 15 min before 5th swim, with prazosin 0.2 mg/kg): +77.5±5.2% | decrease of immobility, maximum effect ([1]; dp6FNE 3 mg/kg acute i.p., 15 min before 5th swim, with prazosin 0.2 mg/kg): −39.4±16.6% | signs of toxicity (reduced arousal, disheveled fur coat) after repeated treatment ([1]; repeated daily treatment, no formal measures): no obvious signs of toxicity | effect of oral administration on immobility ([1]; tube fed with prazosin 0.2 mg/kg, 45 min prior to the 5th swim): dose-dependent reduction in immobility | reduction in gene expression (Fos) in the PVH [2]: 13.0±20.1% | behavioral inhibition in the home cage following handling and injection stress [3]: rescue of home cage exploration
